Assay results as given in patent US20250268980A1, “AN ANTICANCER THERAPY TARGETING RAS AND OTHER ONCOGENIC SIGNALS BY INHIBITION OF DYNAMIC BLEBBING AND/OR SEPTINS” (THE BOARD OF REGENTS OF THE UNIVERSITY OF TEXAS SYSTEM, priority 2022, published 2025).

What was measured:
A375 cells = experiment: Detached/adhered viability assay, ethidium homodimer staining, A375; assay type: cell-based, human; settings: for anoikis resistance (cell death adhered vs detached): 24 hours
Experimental: Bleb formation was inhibited using wheat germ agglutinin (WGA), a lectin that reduces plasma membrane deformability by crosslinking components of the glycocalyx. […] To investigate putative bleb function as a driver of anchorage-independent cell survival assays were designed that consistently minimized both cell-substrate and cell-cell attachment over a period of 24 hours. This was accomplished by seeding cells at very low density (approx. 250 or 100 cells/ml) in non-adherent culture dishes under constant gentle agitation. For controls, cells were grown at identical concentrations in adherent variants of the same culture dishes. Together, this generated pairs of ‘detached’ and ‘adhered’ cell populations in paired same-day experiments.
Cell Culture and Reagents. MV3 cells were obtained from MD Anderson Cancer Center. A375 cells (ATCCR CRL1619) were acquired from ATCC. M498 cells were acquired from UT Southwestern.
Detached/Adhered Cell Culture. […] Drug treatments, solvent-only controls, or CellEvent caspase activity sensor were added to suspensions if appropriate to the experiment, and then immediately transferred to both an uncoated (for detached cells) and ibiTreated (for adhered cells) 8-well ibidi u-slide (ibidi cat #80821 and 80826) at 200 μl/well. Both slides were stored at 37° C. and 5% CO2 for either 24 hours (hrs) for viability assays, 3 hrs for ERK activity assays or 4 hours for caspase activation assays. Uncoated slides (detached) were nutated at 20 rpm during this time. […] For experiments using MAPKi A375 cells, Dabrafenib and Trametinib treatment was continued over the course of the experiment.
Cells Grown in VitroGel Coffins. VitroGel coffins were prepared by embedding MV3 or A375 cells in VitroGel 3D or RGD at 1:1 dilution according to manufacturer's instructions (TheWell Biosciences, sku #TWG001). […] A 1:1 solution of VitroGel and VitroGel Dilution Solution was made and added to cell suspension at a ratio of 4:1 (VitroGel: cells) using gentle pipetting until well-mixed (with care taken not to form bubbles). Cell/VitroGel solution was transferred to an 8-well uncoated ibidi μ-slide (ibidi cat #80821) at 100 μl/well, spread over the bottom of wells with a pipette tip, and allowed to polymerize at room temperature for 15 minutes. The remainder of the well was then filled with 10% FBS DMEM and slide was stored at 37° C. and 5% CO2 for either 24 hrs for viability assays, 3 hrs for ERK activity assays, or 1 hour for visualization of septins/PI3K activity.
Viability, ERK Activity, and Caspase ActivityCell Counting Assays. Viability, ERK activity, and caspase activity assays were analyzed using live-cell fluorescent and phase-contrast microscopy, performed on a Nikon Ti microscope equipped with an environmental chamber held at 37° C. and 5% CO2 at 20× magnification. For viability assays, cells were stained with ethidium homodimer-1 (Invitrogen cat #E1169) at 4 µM and Hoechst (ThermoFisher cat #H3570) at 10 μg/ml for 15 minutes before imaging. Live and dead cells (as identified by significant cellular ethidium signal) were counted using the Cell Counter ImageJ plugin. For ERK activity assays, live cells carrying ERK-nKTR-GFP and H2B-mCherry were imaged after 3 hours of experimental conditions and high/low ERK activity cells were counted with Cell Counter ImageJ plugin. Cells in which nuclear GFP signals were by eye higher than cytoplasmic signal (“brighter” nucleus visible within “darker” cytoplasm) were labelled ERK low, while cytoplasmic signals equal to or higher than nuclear signal (nucleus indistinguishable from cytoplasm or “darker” nucleus within “brighter” cytoplasm) were labelled ERK high. To control for unconscious bias in making this determination, the identity of all ERK experimental groups were blinded from the analyst. […]

MV3 cells = experiment: Caspase activity assay (CellEvent Caspase-3/7) in MV3 cells; assay type: cell-based, human; settings: detached MV3 cells, 4 h, 10 μg/mL WGA
Experimental: Detached/Adhered Cell Culture. […] Drug treatments, solvent-only controls, or CellEvent caspase activity sensor were added to suspensions if appropriate to the experiment, and then immediately transferred to both an uncoated (for detached cells) and ibiTreated (for adhered cells) 8-well ibidi u-slide (ibidi cat #80821 and 80826) at 200 μl/well. Both slides were stored at 37° C. and 5% CO2 for either 24 hours (hrs) for viability assays, 3 hrs for ERK activity assays or 4 hours for caspase activation assays. Uncoated slides (detached) were nutated at 20 rpm during this time. […]
Viability, ERK Activity, and Caspase ActivityCell Counting Assays. Viability, ERK activity, and caspase activity assays were analyzed using live-cell fluorescent and phase-contrast microscopy, performed on a Nikon Ti microscope equipped with an environmental chamber held at 37° C. and 5% CO2 at 20× magnification. […] Live and dead cells (as identified by significant cellular ethidium signal) were counted using the Cell Counter ImageJ plugin. For ERK activity assays, live cells carrying ERK-nKTR-GFP and H2B-mCherry were imaged after 3 hours of experimental conditions and high/low ERK activity cells were counted with Cell Counter ImageJ plugin. […] Caspase positive and negative cells (as identified by significant cellular CellEvent signal) were counted using the Cell Counter ImageJ plugin.

Compound	anoikis resistance (cell death adhered vs detached) (A375 cells; non-stressed A375, 50 μM FCF)	anoikis resistance (cell death adhered vs detached) (A375 cells; pre-stressed A375, 50 μM FCF)	viability (A375 cells; adhered A375 pre-incubated 48 hours with 10 nM Dabrafenib and 1 nM Trametinib, WGA)	cell death (A375 cells; detached A375 pre-incubated 48 hours with 10 nM Dabrafenib and 1 nM Trametinib, WGA)	anoikis resistance upon bleb inhibition (A375 cells; pre-stressed A375 cells (overconfluent for 48 hours), WGA)	cell death (A375 cells; unstressed A375 cells, adhered or detached, 24 hours of WGA)	caspase activation (MV3 cells)
O=C(Nc1ccccc1)Nc1ccnc(Cl)c1 [FCF, forchlorfenuron]	no appreciable effect	greatly disrupted anoikis resistance	–	–	–	–	–
wheat germ agglutinin [WGA]	–	–	minimal change in viability	increased cell death	strongly dependent upon blebbing	unaffected	consistent and specific increase of caspase activation
